From the kinase profiling compilation of Christmann-Franck et al. (2016)

What was measured:
Assay in all cases: radiometric filter-binding kinase assay, Kinase HotSpot
Conditions in all cases: compound 0.5 µM; ATP 10 µM
[1] = target: MAP2K1 (human) (UniProt Q02750)
[2] = target: PTK6 (human) (UniProt Q13882)
[3] = target: JAK2 JH1 JH2 (human) (UniProt O60674)
[4] = target: CDK4 CCND1 (human) (UniProt P24385+P11802)
[5] = target: PLK2 (human) (UniProt Q9NYY3)
[6] = target: ALK (human) (UniProt Q9UM73)
[7] = target: ERBB2 (human) (UniProt P04626)
[8] = target: NTRK2 (human) (UniProt Q16620)
[9] = target: PAK3 (human) (UniProt O75914)
[10] = target: CLK2 (human) (UniProt P49760)
[11] = target: JAK3 JH1 JH2 (human) (UniProt P52333)
[12] = target: SRPK1 (human) (UniProt Q96SB4)
[13] = target: MAP3K11 (human) (UniProt Q16584)
[14] = target: CLK1 (human) (UniProt P49759)
[15] = target: LRRK2 (human) (UniProt Q5S007)
[16] = target: STK39 (human) (UniProt Q9UEW8)
[17] = target: NEK4 (human) (UniProt P51957)
[18] = target: PRKD2 (human) (UniProt Q9BZL6)
[19] = target: TBK1 (human) (UniProt Q9UHD2)
[20] = target: PRKX (human) (UniProt P51817)
[21] = target: CHUK (human) (UniProt O15111)
[22] = target: PDPK1 (human) (UniProt O15530)
[23] = target: HIPK1 (human) (UniProt Q86Z02)
[24] = target: MAP3K7 TAB1 (human) (UniProt O43318+Q15750)
[25] = target: CAMK1 (human) (UniProt Q14012)
[26] = target: EPHB2 (human) (UniProt P29323)
[27] = target: RPS6KA4 KD2 (human) (UniProt O75676)
[28] = target: CLK3 (human) (UniProt P49761)
[29] = target: CSNK1G1 (human) (UniProt Q9HCP0)
[30] = target: PAK2 (human) (UniProt Q13177)
[31] = target: ERBB4 (human) (UniProt Q15303)
[32] = target: MLTK (human) (UniProt Q9NYL2)
[33] = target: DYRK4 (human) (UniProt Q9NR20)
[34] = target: TTK (human) (UniProt P33981)
[35] = target: MAPK1 (human) (UniProt P28482)
[36] = target: VRK1 (human) (UniProt Q99986)
[37] = target: TAOK2 (human) (UniProt Q9UL54)
[38] = target: DYRK1A (human) (UniProt Q13627)
[39] = target: MKNK2 (human) (UniProt Q9HBH9)
[40] = target: TXK (human) (UniProt P42681)
[41] = target: IRAK1 (human) (UniProt P51617)
[42] = target: MARK3 (human) (UniProt P27448)

Chain of MKNK2 (human) (Q9HBH9 whole entry, looked up): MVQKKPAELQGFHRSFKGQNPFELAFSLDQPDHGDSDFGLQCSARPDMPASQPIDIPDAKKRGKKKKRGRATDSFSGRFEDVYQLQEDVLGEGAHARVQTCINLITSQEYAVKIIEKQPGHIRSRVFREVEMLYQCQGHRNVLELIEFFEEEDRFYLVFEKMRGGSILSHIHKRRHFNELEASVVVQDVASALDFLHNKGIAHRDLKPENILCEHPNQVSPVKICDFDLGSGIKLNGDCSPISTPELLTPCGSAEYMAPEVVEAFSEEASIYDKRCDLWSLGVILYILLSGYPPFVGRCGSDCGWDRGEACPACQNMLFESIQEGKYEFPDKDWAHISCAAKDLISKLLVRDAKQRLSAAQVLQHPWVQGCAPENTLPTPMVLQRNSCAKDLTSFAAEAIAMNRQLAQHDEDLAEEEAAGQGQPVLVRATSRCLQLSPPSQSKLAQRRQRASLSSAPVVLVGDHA
Chain of TXK (human) (P42681 whole entry, looked up): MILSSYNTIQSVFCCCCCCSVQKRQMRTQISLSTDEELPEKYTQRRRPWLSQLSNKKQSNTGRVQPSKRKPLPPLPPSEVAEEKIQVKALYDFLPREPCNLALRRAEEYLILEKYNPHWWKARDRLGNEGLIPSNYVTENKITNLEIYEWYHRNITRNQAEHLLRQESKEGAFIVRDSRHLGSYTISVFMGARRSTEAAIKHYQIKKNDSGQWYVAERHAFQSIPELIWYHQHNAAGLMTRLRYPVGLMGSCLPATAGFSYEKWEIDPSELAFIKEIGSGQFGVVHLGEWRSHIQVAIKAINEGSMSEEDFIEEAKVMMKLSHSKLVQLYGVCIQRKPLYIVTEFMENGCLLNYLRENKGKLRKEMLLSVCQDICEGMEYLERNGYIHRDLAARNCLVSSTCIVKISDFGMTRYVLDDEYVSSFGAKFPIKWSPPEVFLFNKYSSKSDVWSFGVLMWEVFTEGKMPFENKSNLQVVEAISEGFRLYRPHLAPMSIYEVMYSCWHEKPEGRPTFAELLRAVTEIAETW
Chain of CLK3 (human) (P49761 whole entry, looked up): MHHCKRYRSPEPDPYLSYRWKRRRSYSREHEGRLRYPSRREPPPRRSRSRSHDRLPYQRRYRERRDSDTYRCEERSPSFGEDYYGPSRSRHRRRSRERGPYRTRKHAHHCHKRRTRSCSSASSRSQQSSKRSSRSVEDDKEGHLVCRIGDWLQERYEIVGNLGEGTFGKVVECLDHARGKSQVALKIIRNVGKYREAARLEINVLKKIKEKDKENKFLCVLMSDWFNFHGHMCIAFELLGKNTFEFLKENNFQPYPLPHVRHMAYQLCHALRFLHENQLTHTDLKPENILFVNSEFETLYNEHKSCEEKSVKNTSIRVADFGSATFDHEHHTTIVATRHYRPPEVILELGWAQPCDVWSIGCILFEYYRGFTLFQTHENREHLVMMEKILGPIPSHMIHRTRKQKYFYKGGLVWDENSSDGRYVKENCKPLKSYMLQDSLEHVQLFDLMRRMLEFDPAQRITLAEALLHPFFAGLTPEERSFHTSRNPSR
Chain of CDK4 CCND1 (human) (P11802 whole entry, looked up): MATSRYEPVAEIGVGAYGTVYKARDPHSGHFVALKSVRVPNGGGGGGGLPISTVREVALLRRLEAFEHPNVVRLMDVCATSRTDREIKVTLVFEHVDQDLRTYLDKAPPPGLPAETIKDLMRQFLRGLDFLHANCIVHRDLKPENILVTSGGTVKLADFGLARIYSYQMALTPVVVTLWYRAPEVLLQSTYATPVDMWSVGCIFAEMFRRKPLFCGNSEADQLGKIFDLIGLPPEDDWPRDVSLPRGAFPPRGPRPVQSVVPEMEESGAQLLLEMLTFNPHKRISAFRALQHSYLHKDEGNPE
Chain of CDK4 CCND1 (human) (P24385 whole entry, looked up): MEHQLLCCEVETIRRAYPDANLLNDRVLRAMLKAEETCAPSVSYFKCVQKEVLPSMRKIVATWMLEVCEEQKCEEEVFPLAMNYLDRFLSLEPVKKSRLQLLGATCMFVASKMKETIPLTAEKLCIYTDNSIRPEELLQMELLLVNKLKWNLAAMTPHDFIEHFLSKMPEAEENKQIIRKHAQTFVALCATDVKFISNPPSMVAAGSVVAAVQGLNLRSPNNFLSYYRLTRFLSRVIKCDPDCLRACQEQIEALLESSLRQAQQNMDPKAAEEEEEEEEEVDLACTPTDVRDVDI
Chain of TBK1 (human) (Q9UHD2 whole entry, looked up): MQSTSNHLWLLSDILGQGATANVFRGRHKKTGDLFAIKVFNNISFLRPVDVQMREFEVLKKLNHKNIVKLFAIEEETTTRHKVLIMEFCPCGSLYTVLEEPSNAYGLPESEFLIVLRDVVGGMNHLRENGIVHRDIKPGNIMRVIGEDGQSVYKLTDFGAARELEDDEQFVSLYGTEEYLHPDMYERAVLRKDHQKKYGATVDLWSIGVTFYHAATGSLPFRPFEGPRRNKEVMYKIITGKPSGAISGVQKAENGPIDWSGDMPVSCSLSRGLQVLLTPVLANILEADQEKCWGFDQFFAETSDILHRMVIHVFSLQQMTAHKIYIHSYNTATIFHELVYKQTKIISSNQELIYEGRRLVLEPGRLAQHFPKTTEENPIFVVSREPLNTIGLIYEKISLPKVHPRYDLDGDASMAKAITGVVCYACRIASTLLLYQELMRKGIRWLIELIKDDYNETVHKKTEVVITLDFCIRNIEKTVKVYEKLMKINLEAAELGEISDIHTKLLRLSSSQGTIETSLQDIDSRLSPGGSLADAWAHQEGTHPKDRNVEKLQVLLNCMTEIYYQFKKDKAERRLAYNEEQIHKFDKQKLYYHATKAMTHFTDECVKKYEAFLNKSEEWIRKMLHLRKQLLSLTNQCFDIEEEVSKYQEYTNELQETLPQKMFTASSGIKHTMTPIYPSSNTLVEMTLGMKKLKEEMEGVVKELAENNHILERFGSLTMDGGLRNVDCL
Chain of CAMK1 (human) (Q14012 whole entry, looked up): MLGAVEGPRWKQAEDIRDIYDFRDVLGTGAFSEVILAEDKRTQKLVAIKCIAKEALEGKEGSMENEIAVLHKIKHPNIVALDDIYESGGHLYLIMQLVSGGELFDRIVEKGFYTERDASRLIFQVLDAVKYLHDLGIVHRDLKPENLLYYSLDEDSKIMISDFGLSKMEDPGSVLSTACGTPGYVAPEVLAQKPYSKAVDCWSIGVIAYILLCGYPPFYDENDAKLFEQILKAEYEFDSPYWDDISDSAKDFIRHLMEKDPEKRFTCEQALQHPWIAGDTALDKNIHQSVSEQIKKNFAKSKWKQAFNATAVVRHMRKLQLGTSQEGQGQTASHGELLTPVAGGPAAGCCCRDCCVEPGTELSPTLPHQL
Chain of EPHB2 (human) (P29323 whole entry, looked up): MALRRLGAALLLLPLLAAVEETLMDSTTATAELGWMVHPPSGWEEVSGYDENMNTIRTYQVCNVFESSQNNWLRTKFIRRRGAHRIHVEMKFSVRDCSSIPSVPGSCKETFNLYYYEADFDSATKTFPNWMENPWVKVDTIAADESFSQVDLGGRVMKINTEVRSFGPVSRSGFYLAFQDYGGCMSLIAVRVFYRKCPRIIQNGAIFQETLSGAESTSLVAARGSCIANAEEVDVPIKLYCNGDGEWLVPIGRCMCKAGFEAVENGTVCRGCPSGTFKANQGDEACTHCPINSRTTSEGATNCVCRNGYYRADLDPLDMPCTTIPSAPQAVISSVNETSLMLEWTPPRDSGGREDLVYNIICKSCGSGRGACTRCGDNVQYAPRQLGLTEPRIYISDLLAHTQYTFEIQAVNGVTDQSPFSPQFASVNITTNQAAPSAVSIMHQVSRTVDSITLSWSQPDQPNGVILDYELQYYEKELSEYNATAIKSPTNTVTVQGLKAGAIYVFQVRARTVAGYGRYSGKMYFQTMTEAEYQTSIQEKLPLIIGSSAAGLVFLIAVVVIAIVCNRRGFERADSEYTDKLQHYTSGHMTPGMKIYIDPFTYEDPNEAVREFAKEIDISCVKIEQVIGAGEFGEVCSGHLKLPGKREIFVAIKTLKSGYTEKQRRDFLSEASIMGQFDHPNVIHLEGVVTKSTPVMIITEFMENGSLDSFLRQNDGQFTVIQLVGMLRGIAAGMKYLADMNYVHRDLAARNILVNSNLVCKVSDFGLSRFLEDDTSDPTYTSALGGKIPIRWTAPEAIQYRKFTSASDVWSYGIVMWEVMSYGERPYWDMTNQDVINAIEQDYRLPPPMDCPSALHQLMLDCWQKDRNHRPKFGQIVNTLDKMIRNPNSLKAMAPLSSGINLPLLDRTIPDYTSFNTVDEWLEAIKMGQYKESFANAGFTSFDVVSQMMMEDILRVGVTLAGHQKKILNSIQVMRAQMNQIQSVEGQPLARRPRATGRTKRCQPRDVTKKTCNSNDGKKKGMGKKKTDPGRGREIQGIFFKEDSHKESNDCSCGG
Chain of CLK1 (human) (P49759 whole entry, looked up): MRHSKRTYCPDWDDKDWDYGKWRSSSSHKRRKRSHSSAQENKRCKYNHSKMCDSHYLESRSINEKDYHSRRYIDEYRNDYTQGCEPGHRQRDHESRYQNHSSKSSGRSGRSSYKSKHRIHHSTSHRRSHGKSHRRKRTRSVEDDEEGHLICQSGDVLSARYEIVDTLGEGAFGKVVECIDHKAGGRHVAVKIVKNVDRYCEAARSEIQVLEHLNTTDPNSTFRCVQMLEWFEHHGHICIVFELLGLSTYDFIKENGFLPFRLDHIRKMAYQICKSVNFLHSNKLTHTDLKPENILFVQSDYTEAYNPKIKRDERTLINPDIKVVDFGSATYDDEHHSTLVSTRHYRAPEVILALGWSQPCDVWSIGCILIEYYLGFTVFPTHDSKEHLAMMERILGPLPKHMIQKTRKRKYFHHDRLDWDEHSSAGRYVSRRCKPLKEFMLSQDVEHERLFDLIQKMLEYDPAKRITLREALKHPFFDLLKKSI

SMILES: O=C(Nc1cccc(Nc2nccc(Nc3cccc(C(F)(F)F)c3)n2)c1)C1CC1
- residual activity [1]: 98%
- residual activity [2]: 72.3%
- residual activity [3]: 47.7%
- residual activity [4]: 101%
- residual activity [5]: 99.5%
- residual activity [6]: 99.8%
- residual activity [7]: 93.8%
- residual activity [8]: 71.6%
- residual activity [9]: 98.9%
- residual activity [10]: 87.6%
- residual activity [11]: 109%
- residual activity [12]: 104%
- residual activity [13]: 89.5%
- residual activity [14]: 102%
- residual activity [15]: 93.7%
- residual activity [16]: 94.1%
- residual activity [17]: 83.4%
- residual activity [18]: 101%
- residual activity [19]: 91%
- residual activity [20]: 94.6%
- residual activity [21]: 95.7%
- residual activity [22]: 104%
- residual activity [23]: 98.7%
- residual activity [24]: 87.4%
- residual activity [25]: 95.5%
- residual activity [26]: 97.8%
- residual activity [27]: 104%
- residual activity [28]: 104%
- residual activity [29]: 105%
- residual activity [30]: 105%
- residual activity [31]: 103%
- residual activity [32]: 110%
- residual activity [33]: 107%
- residual activity [34]: 92.1%
- residual activity [35]: 89%
- residual activity [36]: 88.2%
- residual activity [37]: 92.4%
- residual activity [38]: 107%
- residual activity [39]: 91.3%
- residual activity [40]: 90.2%
- residual activity [41]: 96.4%
- residual activity [42]: 102%

SMILES: O=C1Nc2ccc(Cl)cc2/C1=C/c1cc(Cl)c(O)c(Cl)c1
- residual activity [1]: 96.8%
- residual activity [2]: 73.8%
- residual activity [3]: 91.1%
- residual activity [4]: 94.7%
- residual activity [5]: 95.4%
- residual activity [6]: 65.8%
- residual activity [7]: 107%
- residual activity [8]: 61.1%
- residual activity [9]: 94.3%
- residual activity [10]: 95.5%
- residual activity [11]: 100%
- residual activity [12]: 106%
- residual activity [13]: 60.4%
- residual activity [14]: 85%
- residual activity [15]: 11%
- residual activity [16]: 97%
- residual activity [17]: 88.2%
- residual activity [18]: 95.5%
- residual activity [19]: 86.8%
- residual activity [20]: 92.1%
- residual activity [21]: 97%
- residual activity [22]: 103%
- residual activity [23]: 102%
- residual activity [24]: 86.8%
- residual activity [25]: 94.9%
- residual activity [26]: 90.9%
- residual activity [27]: 98%
- residual activity [28]: 90.9%
- residual activity [29]: 89%
- residual activity [30]: 96.8%
- residual activity [31]: 94.2%
- residual activity [32]: 77.4%
- residual activity [33]: 95.7%
- residual activity [34]: 84.4%
- residual activity [35]: 84.3%
- residual activity [36]: 80.6%
- residual activity [37]: 81.3%
- residual activity [38]: 95.6%
- residual activity [39]: 88.7%
- residual activity [40]: 86.6%
- residual activity [41]: 95.4%
- residual activity [42]: 81.1%

SMILES: c1ccc(-c2n[nH]cc2-c2ccnc3ccccc23)nc1
- residual activity [1]: 93.7%
- residual activity [2]: 70.9%
- residual activity [3]: 107%
- residual activity [4]: 101%
- residual activity [5]: 98.9%
- residual activity [6]: 111%
- residual activity [7]: 106%
- residual activity [8]: 112%
- residual activity [9]: 99.7%
- residual activity [10]: 99.4%
- residual activity [11]: 92.7%
- residual activity [12]: 98.4%
- residual activity [13]: 96.5%
- residual activity [14]: 106%
- residual activity [15]: 93.7%
- residual activity [16]: 88.7%
- residual activity [17]: 95.8%
- residual activity [18]: 66.9%
- residual activity [19]: 92.6%
- residual activity [20]: 102%
- residual activity [21]: 94.2%
- residual activity [22]: 93.8%
- residual activity [23]: 99.9%
- residual activity [24]: 98.4%
- residual activity [25]: 96.1%
- residual activity [26]: 103%
- residual activity [27]: 87.2%
- residual activity [28]: 105%
- residual activity [29]: 92.2%
- residual activity [30]: 57%
- residual activity [31]: 85.7%
- residual activity [32]: 78%
- residual activity [33]: 104%
- residual activity [34]: 97.4%
- residual activity [35]: 108%
- residual activity [36]: 92.6%
- residual activity [37]: 96.8%
- residual activity [38]: 90.9%
- residual activity [39]: 81.9%
- residual activity [40]: 89.1%
- residual activity [41]: 124%
- residual activity [42]: 87.5%
